Assay results reported in patent US20150335025A1 (priority 2014, published 2015).

Tested on: Bacillus anthracis Spores
Assay type: cell-based, Bacillus anthracis (Ames strain)

Structure (SMILES): O=S(=O)([O-])OOS(=O)(=O)[O-].[Na+].[Na+] [Klozur ™, sodium persulfate]
- Decontamination effectiveness against B. anthracis, topsoil compared with AZTD: not significantly different
- Inactivation of B. anthracis: complete inactivation
